Test: Moisture adsorption/desorption isotherm measurement (DVS)
Format: physicochemical
From the text: The moisture adsorption/desorption isotherm measurement is a measurement method for measuring the adsorption and desorption behavior of moisture by measuring a weight change in a solid as a measurement target under each relative humidity condition.
As a basic measurement method, based on the dry weight at 0% RH (relative humidity 0%), the relative humidity is increased every 5% or 10%, and after the weight is stabilized at each relative humidity, the amount of adsorbed water can be determined from the weight increase from the reference value. Similarly, the desorption amount of water can be measured by decreasing the relative humidity every 5% or 10% from 100% RH or 95% RH.
By plotting the value of the weight change at each relative humidity, an adsorption/desorption isotherm can be obtained.
Sorption and desorption of adhesion water and crystal water are affected by particle size, crystallinity, crystal habit, and the like, so that the measurement results may slightly change.
The crystals and amorphous substances obtained in each Example were weighed in an aluminum pan, and allowed to stand at 25° C. and a relative humidity of 0%. The measurement was started after the compound was sufficiently dried and the weight was stabilized, and the weight when the relative humidity changed from 0% to 95% by 5% was recorded. Next, the weight when the relative humidity changed from 95% to 0% by 5% was recorded.
Device: DVS Advantage manufactured by Surface Measurement Systems

Q: Which results are given for CS(=O)(=O)CC(=O)Nc1c2c(nn1CCCOC(F)(F)F)CC1(CCOc3cc(OCC(F)(F)F)ccc31)NC2=O (stereo not drawn)?
A: Moisture adsorption amount (%) (relative humidity 0.0%): 0.001%; Moisture desorption amount (%) (relative humidity 0.0%): −0.004%; Moisture adsorption amount (%) (relative humidity 5.0%): 0.242%; Moisture desorption amount (%) (relative humidity 5.0%): 0.453%; Moisture adsorption amount (%) (relative humidity 10.0%): 0.353%; Moisture desorption amount (%) (relative humidity 10.0%): 0.715%; Moisture adsorption amount (%) (relative humidity 15.0%): 0.457%; Moisture desorption amount (%) (relative humidity 15.0%): 0.916%; Moisture adsorption amount (%) (relative humidity 20.0%): 0.556%; Moisture desorption amount (%) (relative humidity 20.0%): 1.067%; Moisture adsorption amount (%) (relative humidity 25.0%): 0.651%; Moisture desorption amount (%) (relative humidity 25.0%): 1.194%; Moisture adsorption amount (%) (relative humidity 30.0%): 0.741%; Moisture desorption amount (%) (relative humidity 30.0%): 1.311%; Moisture adsorption amount (%) (relative humidity 35.0%): 0.831%; Moisture desorption amount (%) (relative humidity 35.0%): 1.412%; Moisture adsorption amount (%) (relative humidity 40.0%): 0.922%; Moisture desorption amount (%) (relative humidity 40.0%): 1.510%; Moisture adsorption amount (%) (relative humidity 45.0%): 1.003%; Moisture desorption amount (%) (relative humidity 45.0%): 1.601%; Moisture adsorption amount (%) (relative humidity 50.0%): 1.096%; Moisture desorption amount (%) (relative humidity 50.0%): 1.688%; Moisture adsorption amount (%) (relative humidity 55.0%): 1.186%; Moisture desorption amount (%) (relative humidity 55.0%): 1.776%; Moisture adsorption amount (%) (relative humidity 60.0%): 1.285%; Moisture desorption amount (%) (relative humidity 60.0%): 1.870%; Moisture adsorption amount (%) (relative humidity 65.0%): 1.382%; Moisture desorption amount (%) (relative humidity 65.0%): 1.964%; Moisture adsorption amount (%) (relative humidity 70.0%): 1.498%; Moisture desorption amount (%) (relative humidity 70.0%): 2.062%; Moisture adsorption amount (%) (relative humidity 75.0%): 1.612%; Moisture desorption amount (%) (relative humidity 75.0%): 2.166%; Moisture adsorption amount (%) (relative humidity 80.0%): 1.744%; Moisture desorption amount (%) (relative humidity 80.0%): 2.278%; Moisture adsorption amount (%) (relative humidity 85.0%): 1.915%; Moisture desorption amount (%) (relative humidity 85.0%): 2.398%; Moisture adsorption amount (%) (relative humidity 90.0%): 2.168%; Moisture desorption amount (%) (relative humidity 90.0%): 2.522%; Moisture adsorption amount (%) (relative humidity 95.0%): 2.597%; Moisture desorption amount (%) (relative humidity 95.0%): 2.597%

Q: What does the source list for Cc1ccc(-n2nc3c(c2NC(=O)CS(C)(=O)=O)C(=O)NC2(CCOc4cc(F)cc(F)c42)C3)nc1 (stereo not drawn)?
A: Moisture adsorption amount (%) (relative humidity 0.0%): 0.002%; Moisture desorption amount (%) (relative humidity 0.0%): −0.433%; Moisture adsorption amount (%) (relative humidity 5.0%): 0.676%; Moisture desorption amount (%) (relative humidity 5.0%): 0.606%; Moisture adsorption amount (%) (relative humidity 10.0%): 1.020%; Moisture desorption amount (%) (relative humidity 10.0%): 1.196%; Moisture adsorption amount (%) (relative humidity 15.0%): 1.312%; Moisture desorption amount (%) (relative humidity 15.0%): 1.674%; Moisture adsorption amount (%) (relative humidity 20.0%): 1.574%; Moisture desorption amount (%) (relative humidity 20.0%): 2.131%; Moisture adsorption amount (%) (relative humidity 25.0%): 1.807%; Moisture desorption amount (%) (relative humidity 25.0%): 2.495%; Moisture adsorption amount (%) (relative humidity 30.0%): 2.015%; Moisture desorption amount (%) (relative humidity 30.0%): 2.831%; Moisture adsorption amount (%) (relative humidity 35.0%): 2.213%; Moisture desorption amount (%) (relative humidity 35.0%): 3.157%; Moisture adsorption amount (%) (relative humidity 40.0%): 2.414%; Moisture desorption amount (%) (relative humidity 40.0%): 3.423%; Moisture adsorption amount (%) (relative humidity 45.0%): 2.589%; Moisture desorption amount (%) (relative humidity 45.0%): 3.699%; Moisture adsorption amount (%) (relative humidity 50.0%): 2.780%; Moisture desorption amount (%) (relative humidity 50.0%): 3.913%; Moisture adsorption amount (%) (relative humidity 55.0%): 2.976%; Moisture desorption amount (%) (relative humidity 55.0%): 4.135%; Moisture adsorption amount (%) (relative humidity 60.0%): 3.185%; Moisture desorption amount (%) (relative humidity 60.0%): 4.411%; Moisture adsorption amount (%) (relative humidity 65.0%): 3.384%; Moisture desorption amount (%) (relative humidity 65.0%): 4.683%; Moisture adsorption amount (%) (relative humidity 70.0%): 3.623%; Moisture desorption amount (%) (relative humidity 70.0%): 5.151%; Moisture adsorption amount (%) (relative humidity 75.0%): 3.914%; Moisture desorption amount (%) (relative humidity 75.0%): 5.420%; Moisture adsorption amount (%) (relative humidity 80.0%): 4.320%; Moisture desorption amount (%) (relative humidity 80.0%): 5.865%; Moisture adsorption amount (%) (relative humidity 85.0%): 4.850%; Moisture desorption amount (%) (relative humidity 85.0%): 6.219%; Moisture adsorption amount (%) (relative humidity 90.0%): 5.604%; Moisture desorption amount (%) (relative humidity 90.0%): 6.599%; Moisture adsorption amount (%) (relative humidity 95.0%): 6.974%; Moisture desorption amount (%) (relative humidity 95.0%): 6.974%

Q: With CS(=O)(=O)CC(=O)Nc1c2c(nn1CCCOC(F)(F)F)C[C@@]1(CCOc3cc(OCC(F)(F)F)ccc31)NC2=O [amorphous substance of the compound represented by Formula (] as the compound, how does the “difference in water content between 0% RH and 95% RH” value (DVS, 25° C.) read?
A: about 2.6%
